The test system of this series is opioid-induced bowel dysfunction in non-malignant pain subjects. In words: six-week, randomized, double-blind, placebo-controlled study of three alvimopan dosage regimens. The class given is in vivo, human. The method, then:
A six-week, randomize, double-blind, placebo-controlled study was conducted to evaluate three dosage regimens for [[(2S)-2-[[(3R,4R)-4-(3-hydroxyphenyl)-3,4-dimethylpiperidin-1-yl]methyl]-3-phenylpropanoyl]amino]acetic acid dihydrate (alvimopan) for the treatment of opioid-induced bowel dysfunction in non-malignant pain subjects, including an evaluation of the improvement of spontaneous bowel movement (SBM) frequency compared to placebo while maintaining an acceptable tolerability profile.
Subjects meeting the initial screening criteria for the study population, and who had been administered chronic opioid therapy for non-malignant pain, were selected.

Here are results for one compound from patent US20060211733A1, “Methods of preventing and treating opioid bowel dysfunction” (Adolor Corporation, priority 2005, published 2006).

Regarding `C[C@H]1CN(C[C@H](Cc2ccccc2)C(=O)NCC(=O)O)CC[C@@]1(C)c1cccc(O)c1.O.O` [alvimopan, [[(2S)-2-[[(3R,4R)-4-(3-hydroxyphenyl)-3,4-dimethylpiperidin-1-yl]methyl]-3-phenylpropanoyl]amino]acetic acid dihydrate], for the setting “0.5 mg BID”, the efficacy entry is recorded as “comparable to 1 mg QD or 1 mg BID” and the safety profile entry is recorded as “comparable to the placebo”. In addition, the “primary and key secondary endpoints (spontaneous bowel movement frequency) compared to placebo” value (all three doses (0.5 mg BID, 1 mg QD, 1 mg BID), subjects on chronic opioid therapy) was “significantly better, both clinically and statistically, than the placebo”. The tolerability result (all treatment arms) is given as “well-tolerated”. For the same compound, where the note is “based on changes in pain scores or opioid consumption during the study”, the analgesic antagonism result is on record as “no evidence of analgesic antagonism”. Moreover, the “rebound post active treatment” value (non-treatment follow-up period) is “no evidence of rebound”. Besides, for the setting “over six-week treatment period”, the tachyphylaxis result is on record as “no evidence of tachyphylaxis”. For the same compound, the “onset and duration of treatment effects” value (six-week treatment period) is “significant at week 1 and were sustained over the entire six-week treatment period”.
